Assay results from patent publication US8431597B2, “Benzimidazole derivatives” (Pfizer Inc., priority 2007, dated 2013).
Counter-ions that a name gives are not always drawn.

Molecular target: T1, Smoothened (SMO) (Mus musculus, UniProt P56726)
T1 construct: C3H10T1/2 cells (ATCC #CCL-226) were split and seeded; endogenous in cells; host or cells: C3H10T1/2 (ATCC #CCL-226)
Assay: Smoothened (SMO)/Sonic Hedgehog (SHh) Transient Transcriptional Activation Assay (Gli-luciferase reporter in C3H10T1/2 cells)
Assay type: cell-based, murine
Conditions: C3H 10T1/2, 2 μM compound; transfected C3H10T1/2 cells, recombinant human SHh 250 ng/mL, 20 hours, luciferase readout; read-out: SMO CELL % INHIBITION @ 2 μM
Outline: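 C3H10T1/2 cells transiently transfected with a murine Gli-responsive firefly luciferase reporter plus pEGFP were serum-starved 20 h in 0.5% calf serum. Compound (2 μM to 2 nM final) was added with recombinant human SHh at 250 ng/mL final for 20 h at 37 °C. Read-out was Dual-Glo luminescence.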

T1 sequence (P56726 33-793): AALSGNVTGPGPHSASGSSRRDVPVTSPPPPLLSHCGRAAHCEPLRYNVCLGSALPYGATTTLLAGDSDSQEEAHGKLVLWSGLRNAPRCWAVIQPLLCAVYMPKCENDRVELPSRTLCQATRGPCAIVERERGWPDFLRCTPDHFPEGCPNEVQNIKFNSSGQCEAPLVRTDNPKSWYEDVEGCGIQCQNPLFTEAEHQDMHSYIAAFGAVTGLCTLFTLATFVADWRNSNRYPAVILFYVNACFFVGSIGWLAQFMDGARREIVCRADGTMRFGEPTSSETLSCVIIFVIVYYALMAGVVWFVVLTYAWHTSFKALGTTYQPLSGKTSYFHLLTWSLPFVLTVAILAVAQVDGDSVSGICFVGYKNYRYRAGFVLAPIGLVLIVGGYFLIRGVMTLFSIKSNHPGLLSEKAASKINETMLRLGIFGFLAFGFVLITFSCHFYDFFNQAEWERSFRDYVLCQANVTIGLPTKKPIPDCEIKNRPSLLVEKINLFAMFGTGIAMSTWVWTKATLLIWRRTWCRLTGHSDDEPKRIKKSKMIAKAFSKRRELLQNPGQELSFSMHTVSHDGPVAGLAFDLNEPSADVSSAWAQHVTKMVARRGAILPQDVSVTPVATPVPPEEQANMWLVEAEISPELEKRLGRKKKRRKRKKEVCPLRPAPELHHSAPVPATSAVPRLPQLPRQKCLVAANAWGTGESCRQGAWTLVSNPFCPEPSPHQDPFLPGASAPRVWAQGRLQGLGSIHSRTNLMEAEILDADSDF

| SMILES | inhibition at 2 µM [%] |
| --- | --- |
| COc1ccc(NC(=O)N[C@@H]2CCN(C)[C@@H](c3nc4ccccc4[nH]3)C2)cn1 [Example 83, 1-[(2R,4R)-2-(1H-benzimidazol-2-yl)-1-methylpiperidin-4-yl]-3-(6-methoxypyridin-3-yl)urea hydrochloride] | 96.1 |
| CC(C)N1C[C@H](NC(=O)Nc2ccc(Cl)c(C(F)(F)F)c2)C[C@H]1c1nc2ccccc2[nH]1 [Example 84, 1-[(3R,5S)-5-(1H-benzimidazol-2-yl)-1-isopropyl-pyrrolidin-3-yl]-3-[4-chloro-3-(trifluoromethyl)phenyl]urea] | 95.4 |
| CN1CC[C@@H](NC(=O)NC2CCCC2)C[C@@H]1c1nc2ccccc2[nH]1 [Example 85, 1-[(2R,4R)-2-(1H-benzimidazol-2-yl)-1-methylpiperidin-4-yl]-3-cyclopentylurea hydrochloride] | 93.1 |
| CN1CC[C@@H](NC(=O)c2ccc3c(c2)OCCO3)C[C@@H]1c1nc2ccccc2[nH]1 [Example 86, N-[(2R,4R)-2-(1H-benzimidazol-2-yl)-1-methylpiperidin-4-yl]-2,3-dihydro-1,4-benzodioxine-6-carboxamide hydrochloride] | 93.1 |
| CN1CC[C@@H](NC(=O)c2ccc3c(c2)CCC(=O)N3)C[C@@H]1c1nc2ccccc2[nH]1 [Example 87, N-[(2R,4R)-2-(1H-benzimidazol-2-yl)-1-methylpiperidin-4-yl]-2-oxo-1,2,3,4-tetrahydroquinoline-6-carboxamide hydrochloride] | 92.3 |
| CN1CC[C@@H](NC(=O)Nc2cccc(C#N)c2)C[C@@H]1c1nc2ccccc2[nH]1 [Example 88, 1-[(2R,4R)-2-(1H-benzimidazol-2-yl)-1-methylpiperidin-4-yl]-3-(3-cyanophenyl)urea hydrochloride] | 92.1 |
| O=C(N[C@@H]1CCN(CC2CC2)[C@@H](c2nc3ccccc3[nH]2)C1)c1ccc2c(c1)OCCO2 [Example 89, N-[(2R,4R)-2-(1H-benzimidazol-2-yl)-1-(cyclopropyl-methyl)piperidin-4-yl]-2,3-dihydro-1,4-benzodioxine-6-carboxamide hydrochloride] | 88.2 |
| CN1CC[C@@H](NC(=O)Nc2ccc(-c3ccccc3)s2)C[C@@H]1c1nc2ccccc2[nH]1 [Example 90, 1-[(2R,4R)-2-(1H-benzimidazol-2-yl)-1-methylpiperidin-4-yl]-3-(5-phenyl-2-thienyl)urea hydrochloride] | 87.9 |
| Cc1nc(C(F)(F)F)ccc1C(=O)N[C@@H]1CCN(C)[C@@H](c2nc3ccccc3[nH]2)C1 [Example 91, N-[(2R,4R)-2-(1H-benzimidazol-2-yl)-1-methylpiperidin-4-yl]-2-methyl-6-(trifluoromethyl)nicotinamide hydrochloride] | 87.9 |
| CN1CC[C@@H](NC(=O)c2ccc(-c3cnco3)cc2)C[C@@H]1c1nc2ccccc2[nH]1 [Example 92, N-[(2R,4R)-2-(1H-benzimidazol-2-yl)-1-methylpiperidin-4-yl]-4-(1,3-oxazol-5-yl)benzamide hydrochloride] | 86.4 |
| CC(C)N1C[C@@H](NC(=O)Nc2ccc(Cl)c(C(F)(F)F)c2)C[C@H]1c1nc2ccccc2[nH]1 [Example 93, 1-[(3S,5S)-5-(1H-benzimidazol-2-yl)-1-isopropyl-pyrrolidin-3-yl]-3-[4-chloro-3-(trifluoromethyl)phenyl]urea] | 85.2 |
| CN1CC[C@H](NC(=O)c2ccc3c(c2)OCCO3)C[C@@H]1c1nc2ccccc2[nH]1 [Example 94, N-[(2R,4S)-2-(1H-benzimidazol-2-yl)-1-methylpiperidin-4-yl]-2,3-dihydro-1,4-benzodioxine-6-carboxamide hydrochloride] | 79.7 |
| CN1CC[C@@H](NC(=O)N2CCOCC2)C[C@@H]1c1nc2ccccc2[nH]1 [Example 95, N-[(2R,4R)-2-(1H-benzimidazol-2-yl)-1-methylpiperidin-4-yl]morpholine-4-carboxamide hydrochloride] | 78.7 |
| COc1cncc(NC(=O)N[C@@H]2CCN(C)[C@@H](c3nc4ccccc4[nH]3)C2)c1 [Example 96, 1-[(2R,4R)-2-(1H-benzimidazol-2-yl)-1-methylpiperidin-4-yl]-3-(5-methoxypyridin-3-yl)urea hydrochloride] | 76.3 |
| CN1CC[C@@H](NC(=O)c2cnc3c(c2)OCCO3)C[C@@H]1c1nc2ccccc2[nH]1 [Example 97, N-[(2R,4R)-2-(1H-benzimidazol-2-yl)-1-methylpiperidin-4-yl]-2,3-dihydro[1,4]dioxino[2,3-b]pyridine-7-carboxamide hydrochloride] | 75.4 |
| N#Cc1ccc(NC(=O)N[C@@H]2CCN(CCc3ccccc3)[C@@H](c3nc4ccccc4[nH]3)C2)cc1 [Example 98, 1-[(2R,4R)-2-(1H-benzimidazol-2-yl)-1-(2-phenyl-ethyl)piperidin-4-yl)-3-(4-cyanophenyl)urea] | 74.5 |
| O=C(N[C@@H]1CCN[C@@H](c2nc3ccccc3[nH]2)C1)c1ccc2c(c1)OCCO2 [Example 99, N-[(2R,4R)-2-(1H-benzimidazol-2-yl)piperidin-4-yl]-2,3-dihydro-1,4-benzodioxine-6-carboxamide trifluoroacetate] | 72 |
| CN1CC[C@@H](NC(=O)c2ccc3c(c2)NC(=O)CO3)C[C@@H]1c1nc2ccccc2[nH]1 [Example 100, N-[(2R,4R)-2-(1H-benzimidazol-2-yl)-1-methylpiperidin-4-yl]-3-oxo-3,4-dihydro-2H-1,4-benzoxazine-6-carboxamide hydrochloride] | 63.7 |
| CN1CC[C@@H](NC(=O)Nc2ccc(C(F)(F)F)cn2)C[C@@H]1c1nc2ccccc2[nH]1 [Example 101, 1-[(2R,4R)-2-(1H-benzimidazol-2-yl)-1-methylpiperidin-4-yl]-3-[5-(trifluoromethyl)pyridin-2-yl]urea hydrochloride] | 62.5 |
| COc1cc(C(=O)N[C@@H]2CCN(C)[C@@H](c3nc4ccccc4[nH]3)C2)ccc1F [Example 102, N-[(2R,4R)-2-(1H-benzimidazol-2-yl)-1-methylpiperidin-4-yl]-4-fluoro-3-methoxybenzamide trifluoroacetate] | 102 |
| Cc1ccc2nccc(C(=O)N[C@@H]3CCN(C)[C@@H](c4nc5ccccc5[nH]4)C3)c2c1 [Example 103, N-[(2R,4R)-2-(1H-benzimidazol-2-yl)-1-methylpiperidin-4-yl]-6-methylquinoline-4-carboxamide trifluoroacetate] | 100 |
| CN1CC[C@@H](NC(=O)Cc2cc3ccccc3o2)C[C@@H]1c1nc2ccccc2[nH]1 [Example 104, N-[(2R,4R)-2-(1H-benzimidazol-2-yl)-1-methylpiperidin-4-yl]-2-(1-benzofuran-2-yl)acetamide trifluoroacetate] | 99.5 |
| CN1CC[C@@H](NC(=O)[C@@H]2COc3ccccc3O2)C[C@@H]1c1nc2ccccc2[nH]1 [Example 105, (2S)-N-[(2R,4R)-2-(1H-benzimidazol-2-yl)-1-methylpiperidin-4-yl]-2,3-dihydro-1,4-benzodioxine-2-carboxamide trifluoroacetate] | 97.8 |
| CN1CC[C@@H](NC(=O)Cn2nc3ccccc3n2)C[C@@H]1c1nc2ccccc2[nH]1 [Example 106, N-[(2R,4R)-2-(1H-benzimidazol-2-yl)-1-methylpiperidin-4-yl]-2-(2H-1,2,3-benzotriazol-2-yl)acetamide trifluoroacetate] | 94.5 |
